Assay results from patent publication US20180133186A1, “PREVENTATIVE TREATMENT OF ALZHEIMER'S DISEASE” (priority 2016, published 2018).
Read-outs that look alike come from different tables or passages of the source.

How the values were obtained:
[1] = tested on: Abeta peptides; assay: Abeta 40 and Abeta 42 peptides in whole brain lysates of CVN-AD mice; format: in vivo, mouse; conditions: DFMO 0.3 or 30 mg/kg vs water, n=12
Excerpt: The average levels of soluble Abeta 42 peptide and soluble Abeta40 peptide (plus and minus the standard error of the mean) measured in whole brain lysates are shown in FIG. 3B. […] The number of mice for each group was 12.

[2] = tested on: melanoma; conditions: 6 g/m^2/d oral escalated to 12 g/m^2/d, n = 24; cited from earlier work
[3] = target: T1, ornithine decarboxylase (Mus musculus, UniProt P00860); assay: Whole brain lysate metabolite levels related to ornithine decarboxylase activity; format: in vivo
T1 construct: from tissue; host or cells: brain of CVN-AD mice (in vivo dosing; whole brain lysates analysed for metabolites)
T1 sequence (P00860 1-461): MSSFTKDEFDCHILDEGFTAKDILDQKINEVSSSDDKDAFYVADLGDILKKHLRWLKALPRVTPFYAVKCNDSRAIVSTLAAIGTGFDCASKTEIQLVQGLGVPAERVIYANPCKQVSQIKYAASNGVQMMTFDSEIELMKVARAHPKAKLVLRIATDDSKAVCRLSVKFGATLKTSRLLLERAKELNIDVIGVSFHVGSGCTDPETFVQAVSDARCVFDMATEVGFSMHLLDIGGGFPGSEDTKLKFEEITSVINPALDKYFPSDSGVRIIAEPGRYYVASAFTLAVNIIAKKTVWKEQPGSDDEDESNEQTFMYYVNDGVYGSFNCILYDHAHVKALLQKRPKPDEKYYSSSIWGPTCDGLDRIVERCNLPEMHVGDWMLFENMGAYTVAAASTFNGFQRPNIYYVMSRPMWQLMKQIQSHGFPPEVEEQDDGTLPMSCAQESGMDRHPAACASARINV
Experimental: (§1) This example was carried out as schematically illustrated in FIG. 1. […] Brains from each mouse were harvested at the end the third day of the rotorod procedure. Brain tissue lysates from each mouse in the experiment were used to determine the levels of Abeta 40 and Abeta 42 peptides and brain metabolites.
Humans with Alzheimer's disease show elevation of these metabolites (Inoue K).

[4] = tested on: Trypanosoma brucei gambiense; conditions: cited from earlier work; for effective dosage for successful treatment of trypanosomiasis: humans
[5] = tested on: melanoma; conditions: cited from earlier work
[6] = tested on: humans; conditions: cited from earlier work
[7] = tested on: CVN-AD mice; format: in vivo
Experimental: as §1

[8] = tested on: Normal volunteers; conditions: cited from earlier work
[9] = tested on: CVN-AD mice; assay: 2-day radial arm water maze in CVN-AD mice; format: in vivo, mouse; conditions: n=12
Excerpt: Alzheimer's disease (CVN-AD) mice are modified non-human warm-blooded vertebrate animals in which a biologically active human APP polypeptide is expressed, and in which function of its inducible Nitric Oxide Synthase (iNOS) protein is reduced as compared to a non-modified animal. CVN-AD mice are described in U.S. Patent Publication No. 20090081128, the contents of which are incorporated by reference in their entirety. […] (2) Aβ deposition around blood vessels resembling pathology observed in humans with cerebral amyloid angiopathy ([…].); (3) hyperphosphorylated and aggregated mouse tau; neuronal loss; worsening behavioral deficits with time (Colton, C.); and (4) significant hippocampal and fornix volume loss (Badea, A.). […] This age in the CVN-AD mouse model is considered as representative of early Alzheimer's disease in humans (Colton, C.). The number of mice in each group is 12.

[10] = tested on: humans; assay: Predicted dosage for Alzheimer's Clinical Trial; format: in vivo, human; conditions: 6 mos-4 yrs
[11] = tested on: Metastatic liver; conditions: cited from earlier work
[12] = tested on: CVN-AD mice
[13] = 30 mg/kg, average +/- sem, n = 11-12 mice
[14] = 14. g/m^2/d (400 mg/kg/day) IV, n = 1055
[15] = 14.8 g/m^2/d (400 mg/kg/day) ORAL, n = 25
[16] = 2 g/m^2/d oral, n = 16, 75 days
[17] = oral delivery [Lipton A] [Pasic T R]

NCCC[C@](N)(C(=O)O)C(F)F [DFMO, alpha-difluoromethylornithine]
average level of insoluble Abeta40 peptide in whole brain lysates [1]: No significant change
average level of insoluble Abeta 42 peptide in whole brain lysates [1]: No significant change
soluble Abeta 40 levels in whole brain lysates [1]: statistically significantly decreased
Other toxicity detected (low grade) [2]: 67% (low grade)
Ototoxicity, % of treated subjects [2]: Ototoxicity in 50% of
Ototoxicity, subjects affected [2]: (12/24)
Observed difference, putrescine (p; significantly decreased with DFMO-treatment) ([3]; 30 mg/kg vs water only): p < 0.05
Observed difference, spermidine (p; significantly decreased with DFMO-treatment) ([3]; 30 mg/kg vs water only): p < 0.01
putrescine, CVN-AD brain lysate levels DFMO-treated [3, 13]: 0.49 ± 0.02 µM/g
spermidine, CVN-AD brain lysate levels DFMO-treated [3, 13]: 12.2 ± 0.63 µM/g
brain levels of putrescine compared to untreated CVN-AD mice ([3]; DFMO treatment): significantly lower
brain levels of spermidine compared to untreated CVN-AD mice ([3]; DFMO treatment): significantly lower
brain levels of spermine compared to untreated CVN-AD mice ([3]; DFMO treatment): significantly lower
Efficacy: clearance of trypanosomes [4, 14]: Prolonged clearance
Efficacy: confirmed cured [4, 14]: 44% confirmed
Efficacy: probable cure [4, 14]: cured, 45%
Efficacy: clearance of brain trypanosomes [4, 15]: Partial clearance of
Efficacy: death [4, 15]: weakness). No
Efficacy: signs/symptoms of trypanosomiasis [4, 15]: Reduced
effective dosage for successful treatment of trypanosomiasis ([4]; intravenous (IV)): 14800 mg/m2/d
effective dosage for successful treatment of trypanosomiasis ([4]; orally): 14800 mg/m2/d
Ototoxicity [5, 16]: Ototoxicity (10%)
Ototoxicity trend with dose and duration [5, 16]: Increasing with dose
dose with mild ototoxicity ([5]; oral delivery [Croghan M K]): 2000 mg/m^2/d
Brain-based toxicity: deaths ([6]; 14. g/m^2/d IV, n = 1055): 15 deaths
Brain-based toxicity: seizures ([6]; 14. g/m^2/d IV, n = 1055): (4%)
Other toxicity detected: abdominal pain ([6]; 14. g/m^2/d IV, n = 1055): pain (37.7%),
Other toxicity detected: headache ([6]; 14. g/m^2/d IV, n = 1055): (31.2%),
Other toxicity detected: diarrhea ([6]; 14.8 g/m^2/d ORAL, n = 25): (58.3%)
Other toxicity detected: headache ([6]; 14.8 g/m^2/d ORAL, n = 25): (16.7%),
Dose limiting events ([7]; 0.3 mg/kg, 14 wks): none
On target in brain ([7]; 0.3 mg/kg, 14 wks): yes
Dose limiting events ([7]; 10 mg/kg, 14 wks): none
On target in brain ([7]; 10 mg/kg, 14 wks (data not shown)): yes (data not
Dose limiting events ([7]; 30 mg/kg, 14 wks): none
On target in brain ([7]; 30 mg/kg, 14 wks): yes
adverse events in DFMO treated CVN-AD mice ([7]; dose range 0.9 to 90 mg/m2/d): No observable adverse events
Other toxicity detected: vomiting/diarrhea ([8]; 0.5-3 g/m^2/d oral, n = 13): Not study limiting
dose above which ototoxicity is dose dependent, increasing toxicity ([8]; 0.5-3 g/m^2/d oral, n = 13): (12%); >1 g/m^2/d is
Ototoxicity ([8]; 0.5 g/m^2/d oral, same as placebo (12%)): (9%) same as placebo
dose with mild reversible ototoxicity (no adverse event grade assigned) [8, 17]: 1000 mg/m^2/d
average number of errors in finding an escape platform after 2 days of trials, radial arm water maze ([9]; 0.3 mg/kg (0.9 mg/m^2) oral gavage 3x/wk 14 weeks vs water only): statistically significantly decreased
average number of errors in finding an escape platform after 2 days of trials, radial arm water maze ([9]; 30 mg/kg (92.5 mg/m^2) oral gavage 3x/wk 14 weeks vs water only): more so
Predicted Dose limiting effects ([10]; estimated human dose 36 mg/m^2 daily): none
Predicted Dose limiting effects ([10]; estimated human dose 109 mg/m^2 daily): none
Predicted Dose limiting effects ([10]; estimated human dose 328 mg/m^2 daily): none
Other toxicity detected, subjects affected ([11]; 0.5 and 1 g/m^2/d IV): 0/3) at 0.5 and 1 g/m^2/d
Ototoxicity, subjects affected ([11]; 0.5 and 1 g/m^2/d IV): Ototoxicity (0/3) at 0.5
Other toxicity detected, subjects affected ([11]; 2 g/m^2/d IV): (0/3) at 2 g/m^2/d
Ototoxicity, subjects affected ([11]; 2 g/m^2/d IV): Ototoxicity (3/3) at 2 g/m^2/d
dose with dose limiting ototoxicity [11, 17]: 1500 mg/m^2/d
average number of seconds on the rotorod over 3 days of testing ([12]; DFMO 0.3 or 30 mg/kg vs water only): No change
toxic effect on motor skills ([12]; at the doses used (0.3, 30 mg/kg)): no toxic effect
